Assay results from ChEMBL document CHEMBL5518228, “DNA Interaction and Cleavage Modes of Anthraquinone-Fused Enediynes: A Study on Tiancimycins, Yangpumicins, and Their Semisynthetic Analogues” (J Med Chem, 2024).
pEC50, pIC50: −log10 of the molar value. The source made the active and inactive calls. The rule behind the calls is not given here.

Key:
Calf thymus DNA [1] = assay: Binding affinity to calf thymus DNA assessed as change in gibbs free energy in presence of ethidium bromide by competitive binding based fluorescence spectroscopic analysis; format: nucleic-acid assay; conditions: Bos taurus
[2] = Cytotoxicity against human KPL-4 cells incubated for 72 hrs by CCK-8 assay; format: functional, cell-based; conditions: KPL4, 72 h
Supercoiled DNA [3] = assay: Induction of supercoiled pBR322 DNA (unknown origin) cleavage at 100 nM incubated for 1 hr in presence of DTT by agarose gel electrophoresis analysis; format: nucleic-acid assay
A549 = assay: Cytotoxicity against human A549 cells incubated for 72 hrs by CCK-8 assay; format: functional, cell-based; conditions: A549, 72 h
Supercoiled DNA [4] = assay: Induction of supercoiled pBR322 DNA (unknown origin) cleavage at 0.5 uM incubated for 1 hr in presence of methanol under pH 7.4 condition by agarose gel electrophoresis analysis; format: nucleic-acid assay
Caco-2 = assay: Cytotoxicity against human Caco-2 cells incubated for 72 hrs by CCK-8 assay; format: functional, cell-based; conditions: Caco-2, 72 h
[5] = Cytotoxicity against human HUVEC cells incubated for 72 hrs by CCK-8 assay; format: toxicity, cell-based
Supercoiled DNA [6] = assay: Induction of supercoiled pBR322 DNA (unknown origin) cleavage at 0.5 uM incubated for 1 hr in presence of mannitol under pH 7.4 condition by agarose gel electrophoresis analysis; format: nucleic-acid assay
Supercoiled DNA [7] = assay: Induction of supercoiled pBR322 DNA (unknown origin) cleavage at 0.5 uM incubated for 1 hr under pH 5.5 to 9.5 condition by agarose gel electrophoresis analysis; format: nucleic-acid assay
Calf thymus DNA [8] = assay: Binding affinity to calf thymus DNA assessed as DNA insertion by measuring change in gibbs free energy by fluorescence spectroscopic analysis; format: nucleic-acid assay; conditions: Bos taurus
[9] = Toxicity in BALB/c mouse xenografted with human KPL-4 cells assessed as body weight loss at 0.05 mg/kg,iv administrated once per week for 2 weeks; format: organism-based; conditions: in vivo, 336 h
Supercoiled DNA [10] = assay: Induction of supercoiled pBR322 DNA (unknown origin) cleavage at 100 nM incubated for 1 hr in presence of 10 uM of actinomycin D by agarose gel electrophoresis analysis; format: nucleic-acid assay
Calf thymus DNA [11] = assay: Binding affinity to calf thymus DNA assessed as DNA insertion by measuring change in gibbs free energy in presence of triggered form of compound by fluorescence spectroscopic analysis; format: nucleic-acid assay; conditions: Bos taurus
Supercoiled DNA [12] = assay: Induction of supercoiled pBR322 DNA (unknown origin) cleavage at 0.5 uM incubated for 1 hr in presence of catalase under pH 7.4 condition by agarose gel electrophoresis analysis; format: nucleic-acid assay
Supercoiled DNA [13] = assay: Induction of supercoiled pBR322 DNA (unknown origin) cleavage at 100 nM incubated for 1 hr in presence of 10 uM of adriamycin by agarose gel electrophoresis analysis; format: nucleic-acid assay
[14] = Cytotoxicity against human NCM460 cells incubated for 72 hrs by CCK-8 assay; format: toxicity, cell-based
Supercoiled DNA [15] = assay: Induction of supercoiled pBR322 DNA (unknown origin) cleavage at 100 nM incubated for 1 hr in presence of NADPH by agarose gel electrophoresis analysis; format: nucleic-acid assay
Supercoiled DNA [16] = assay: Induction of supercoiled pBR322 DNA (unknown origin) cleavage at 0.5 uM incubated for 1 hr in presence of ethanol under pH 7.4 condition by agarose gel electrophoresis analysis; format: nucleic-acid assay
DNA [17] = assay: Induction of duplex DNA (unknown origin) cleavage assessed as DNA cleaved fragments at AT-rich region at 100 uM incubated for 6 hr in presence of DTT by agarose gel electrophoresis analysis; format: nucleic-acid assay
Jurkat = assay: Cytotoxicity against human Jurkat cells incubated for 72 hrs by CCK-8 assay; format: functional, cell-based
Supercoiled DNA [18] = assay: Induction of supercoiled pBR322 DNA (unknown origin) cleavage at 0.5 uM incubated for 1 hr in presence of pyridine under pH 7.4 condition by agarose gel electrophoresis analysis; format: nucleic-acid assay
Supercoiled DNA [19] = assay: Induction of supercoiled pBR322 DNA (unknown origin) cleavage at 100 nM incubated for 1 hr in presence of bleomycin by agarose gel electrophoresis analysis; format: nucleic-acid assay
Supercoiled DNA [20] = assay: Induction of supercoiled pBR322 DNA (unknown origin) cleavage assessed as relaxation of supercoiled plasmid incubated for 1 hr in presence of DTT by SYBR I Green staining based agarose gel electrophoresis analysis; format: nucleic-acid assay
Supercoiled DNA [21] = assay: Induction of supercoiled pBR322 DNA (unknown origin) cleavage at 100 nM incubated for 1 hr in presence of bleomycin and ferrous ion by agarose gel electrophoresis analysis; format: nucleic-acid assay
Supercoiled DNA [22] = assay: Induction of supercoiled pBR322 DNA (unknown origin) cleavage at 100 nM incubated for 1 hr in presence of adriamycin by agarose gel electrophoresis analysis; format: nucleic-acid assay
Supercoiled DNA [23] = assay: Induction of supercoiled pBR322 DNA (unknown origin) cleavage at 100 nM incubated for 1 hr in presence of actinomycin D by agarose gel electrophoresis analysis; format: nucleic-acid assay
Supercoiled DNA [24] = assay: Induction of supercoiled pBR322 DNA (unknown origin) cleavage at 100 nM incubated for 1 hr in presence of GSH by agarose gel electrophoresis analysis; format: nucleic-acid assay
DNA [25] = assay: Induction of duplex DNA (unknown origin) cleavage assessed as DNA cleaved fragments at AT-rich region at 1 mM incubated for 6 hr in presence of DTT by agarose gel electrophoresis analysis; format: nucleic-acid assay
Supercoiled DNA [26] = assay: Induction of supercoiled pBR322 DNA (unknown origin) cleavage at 0.5 uM incubated for 1 hr under pH 7.5 condition by agarose gel electrophoresis analysis; format: nucleic-acid assay
Supercoiled DNA [27] = assay: Induction of supercoiled pBR322 DNA (unknown origin) cleavage at 5 uM incubated for 1 hr in presence of catalase under pH 7.4 condition by agarose gel electrophoresis analysis; format: nucleic-acid assay
Supercoiled DNA [28] = assay: Induction of supercoiled pBR322 DNA (unknown origin) cleavage at 5 uM incubated for 1 hr in presence of pyridine under pH 7.4 condition by agarose gel electrophoresis analysis; format: nucleic-acid assay
Supercoiled DNA [29] = assay: Induction of supercoiled pBR322 DNA (unknown origin) cleavage at 5 uM incubated for 1 hr in presence of methanol under pH 7.4 condition by agarose gel electrophoresis analysis; format: nucleic-acid assay
Supercoiled DNA [30] = assay: Induction of supercoiled pBR322 DNA (unknown origin) cleavage at 5 uM incubated for 1 hr in presence of mannitol under pH 7.4 condition by agarose gel electrophoresis analysis; format: nucleic-acid assay
Supercoiled DNA [31] = assay: Induction of supercoiled pBR322 DNA (unknown origin) cleavage at 5 uM incubated for 1 hr under pH 5.5 to 9.5 condition by agarose gel electrophoresis analysis; format: nucleic-acid assay
Supercoiled DNA [32] = assay: Induction of supercoiled pBR322 DNA (unknown origin) cleavage at 5 uM incubated for 1 hr in presence of ethanol under pH 7.4 condition by agarose gel electrophoresis analysis; format: nucleic-acid assay
DNA [33] = assay: Induction of duplex DNA (unknown origin) cleavage assessed as DNA cleaved fragments at GC-rich region at 17.5 uM incubated for 1 hr in presence of FeSO4.7H2O by agarose gel electrophoresis analysis; format: nucleic-acid assay

Compound | deltaG (Calf thymus DNA [1]) [kcal/mol] | pIC50 [2] | pIC50 (A549) | pIC50 (Caco-2) | IC50 at 72 h [5] [nM] | IC50 at 72 h [14] [nM] | Activity (DNA [17]) | pIC50 (Jurkat) | pEC50 (Supercoiled DNA [20]) | further results
COC1=C(C(=O)O)[C@H](C)[C@@]23O[C@]24c2cc(O)c5c(c2N[C@H]3C#C/C=C\C#CC14)C(=O)c1ccccc1C5=O | -3.79 | – | – | – | – | – | – | – | – | –
COc1ccc2c(c1O)C(=O)c1c3c(cc(O)c1C2=O)[C@@]12O[C@@]1([C@@H](C)O)[C@H](C#C/C=C\C#C[C@H]2O)N3 | -8.26 | 10.70 | 10.40 | 9.40 | 0.2 | 0.2 | Active | 10.30 | 7.41 | Activity (Supercoiled DNA [3]): Active; Activity (Supercoiled DNA [4]): Active; Activity (Supercoiled DNA [6]): Active; Activity (Supercoiled DNA [7]): Active; deltaG (Calf thymus DNA [8]): -20.5 kcal/mol; Activity [9]: Toxic; Activity (Supercoiled DNA [10]): inactive; deltaG (Calf thymus DNA [11]): -17.8 kcal/mol; Activity (Supercoiled DNA [12]): Active; Activity (Supercoiled DNA [13]): inactive; Activity (Supercoiled DNA [15]): inactive; Activity (Supercoiled DNA [16]): Active; Activity (Supercoiled DNA [18]): Active; Activity (Supercoiled DNA [19]): Active; Activity (Supercoiled DNA [21]): Active; Activity (Supercoiled DNA [22]): inactive; Activity (Supercoiled DNA [23]): inactive
COC(=O)[C@@H](O)[C@@](C)(O)[C@@]12O[C@]13c1cc(O)c4c(c1N[C@H]2C#C/C=C\C#C[C@H]3O)C(=O)c1c(O)c(OC)cc(-n2[nH]c(=O)n(-c3ccccc3)c2=O)c1C4=O | – | 7.63 | 6.30 | 6.21 | 946 | 227 | inactive | 7.35 | 7.48 | –
C[C@@H](O)C12O[C@]13c1cc(O)c4c(c1N[C@H]2C#C/C=C\C#C[C@H]3O)C(=O)c1c(O)cccc1C4=O (stereo partly specified) | -8.31 | 11.22 | 10.22 | 8.85 | 0.2 | 0.07 | Active | 11.05 | 7.12 | –
COC1=C(C(=O)O)[C@H](C)[C@@]23O[C@]24c2cc(O)c5c(c2N[C@H]3C#C/C=C\C#CC14)C(=O)c1c(O)ccc(O)c1C5=O | 2.62 | – | – | – | – | – | – | – | – | deltaG (Calf thymus DNA [8]): -18.1 kcal/mol; deltaG (Calf thymus DNA [11]): -13.6 kcal/mol
COc1cc(Br)c2c(c1O)C(=O)c1c3c(cc(O)c1C2=O)[C@@]12O[C@@]1([C@@H](C)O)[C@H](C#C/C=C\C#C[C@H]2O)N3 | -8.13 | 9.51 | 7.96 | 6.81 | 22.7 | 3.3 | Active | 8.59 | 7.10 | –
O=C1c2ccccc2C(=O)c2c3c(cc(O)c21)[C@@]12O[C@@]1([C@H](O)CO)[C@H](C#C/C=C\C#C[C@H]2O)N3 | -8.31 | 11.40 | 9.70 | 8.27 | 0.3 | 0.1 | Active | 11.00 | 7.08 | Activity (Supercoiled DNA [3]): Active; Activity (Supercoiled DNA [15]): inactive; Activity (Supercoiled DNA [24]): Active
COc1ccc2c(c1OC)C(=O)c1c3c(cc(OC)c1C2=O)[C@@]12O[C@@]1([C@@H](C)O)[C@H](C#C/C=C\C#C[C@H]2O)N3 | – | 7.48 | 6.10 | 6.20 | 525 | 382 | – | 6.93 | < 6.00 | Activity (DNA [25]): inactive
COC(=O)[C@@H](O)[C@@](C)(O)[C@@]12O[C@]13c1cc(O)c4c(c1N[C@H]2C#C/C=C\C#C[C@H]3O)C(=O)c1cc(OC)ccc1C4=O | -7.99 | 9.30 | 8.55 | 8.17 | 15.5 | 2.8 | Active | 10.00 | 6.23 | –
O=C1c2cccc(O)c2C(=O)c2c3c(cc(O)c21)[C@@]12O[C@@]1([C@H](O)CO)[C@H](C#C/C=C\C#C[C@H]2O)N3 | -8.41 | 11.00 | 9.70 | 7.87 | 0.8 | 0.2 | Active | 10.70 | 6.58 | –
COC(=O)[C@@H](O)[C@@](C)(O)[C@@]12O[C@]13c1cc(O)c4c(c1N[C@H]2C#C/C=C\C#C[C@H]3O)C(=O)c1c(ccc(OC)c1O)C4=O | -8.56 | 10.40 | 10.00 | 9.40 | 0.4 | 0.4 | Active | 9.40 | 6.60 | Activity (Supercoiled DNA [4]): Active; Activity (Supercoiled DNA [26]): Active; Activity (Supercoiled DNA [6]): Active; Activity (Supercoiled DNA [12]): Active; Activity (Supercoiled DNA [16]): Active; Activity (Supercoiled DNA [18]): Active
COc1ccc2c(c1O)C(=O)c1c3c(cc(O)c1C2=O)[C@@]12O[C@@]1([C@](C)(O)[C@H](O)C(=O)O)[C@H](C#C/C=C\C#C[C@H]2O)N3 | -8.48 | 9.62 | 8.00 | 6.80 | 6.8 | 0.6 | – | 9.00 | 6.12 | Activity (Supercoiled DNA [27]): Active; Activity (DNA [25]): inactive; Activity (Supercoiled DNA [28]): Active; Activity (Supercoiled DNA [29]): Active; Activity (Supercoiled DNA [30]): Active; Activity (Supercoiled DNA [31]): Active; Activity (Supercoiled DNA [32]): Active
BLEOMYCIN | – | – | – | – | – | – | – | – | – | Activity (DNA [33]): Active
COc1cccc2c1C(=O)c1c(O)c3c(c(O)c1C2=O)C[C@@](O)(C(=O)CO)C[C@@H]3O[C@H]1C[C@H](N)[C@H](O)[C@H](C)O1 | -9.68 | – | – | – | – | – | – | – | – | –
